{"source": "patent US20240252472A1", "about": "“COMBINATIONS FOR TREATING CANCER” (Purdue Pharma L.P., priority 2023, published 2024)", "assay_type_in_all_cases": "cell-based, human", "key": {"MICB": {"tested_on": "MICB", "experiment": "MICB expression on MM patients' plasma cells ex vivo", "settings": "3 out of 6 patients analyzed, 48 hours", "experimental": "(§1) For surface staining, cells were incubated with the appropriate antibodies and 7AAD (Immunostep) for 15 min in the dark. Data were acquired using a FACSCalibur cytometer (BD Biosciences) and analyzed using Infinicyt™ software (Cytognos). Specifically, the expression of CD38 or ligands for NK cell activating receptors (MICA, MICB, ULBP1-3, PVR and CD112) in MM cell lines was determined on the viable cell population (7AAD-). In primary myeloma cells, the expression of CD38 was analyzed over the viable myeloma population using the panel CD138-FITC/CD56-PE/7AAD/CD38-APC, whereas MICA/B-AF488/CD56-PE/7AAD/CD38-APC panel was used to determine MICA/B expression. Normalized median fluorescence intensity (MFI) was calculated by dividing median fluorescence obtained with the specific antibody by median fluorescence of the corresponding isotype control. MFI for each treatment was expressed as a percentage relative to the control (100%, cells cultured in media with DMSO)."}, "[1]": {"tested_on": "MM cell lines (MM.1S, RPMI-8226, MOLP-8)", "experiment": "NK-cell direct cytotoxicity on pre-treated MM cells", "settings": "pre-treatment 2.5 μM 48 hours, NK cells ratio 1:1, 4 hours, vs DMSO-pretreated", "experimental": "ADCC, CDC and apoptosis via cross-linking To assess the effect of tinostamustine pre-treatment on cytotoxic mechanisms mediated by daratumumab, MM cell lines were first incubated in presence of tinostamustine (2.5 μM) or DMSO for 48 hours. Cells were then washed to remove tinostamustine or DMSO from the culture medium, and the corresponding cytotoxic assay (ADCC, CDC or apoptosis via cross-linking) was performed.\nFor the evaluation of ADCC, tinostamustine or DMSO pre-treated cells were cocultured with NK cells obtained from healthy donors in the presence of daratumumab (1 μg/ml) or the corresponding isotype control for 4 hours (ratio 1:1). Briefly, peripheral blood mononuclear cells (PBMCs) were isolated from healthy donor buffy coats by Lymphoprep density gradient centrifugation. […] In all three assays, the cytotoxic effect on MM cells was evaluated by flow cytometry with Annexin V/7AAD staining after treatment with daratumumab. […]\nMM cells (MM1.S, RPMI-8226, MOLP-8 cells pre-treated with 0 or 2.5 μM EDO-S101 in accordance with the methods outlined above) were co-cultured with NK-cells (ratio 1:1), in the presence of daratumumab (1 μg/mL) or the corresponding isotype control, for 4 hours at 37° C. […] ADCC was then evaluated using flow cytometry in accordance with the methods outlined above, using the following panel: CD38me-FITC/AnnexinV-PE/7AAD/CD45-APC."}, "MICB mRNA": {"tested_on": "MICB mRNA", "experiment": "MICB mRNA by RT-qPCR in MM cell lines", "settings": "all four MM cell lines except MOLP-8; 1 and 2.5 μM, 36 hours", "experimental": "Real time quantitative PCR (RT-qPCR) Total RNA was isolated using the RNeasy Mini Kit (Qiagen, Hilden, Germany). Following reverse transcription, PCR was performed using TaqMan Gene Expression Assays (Applied Biosystems, Foster City, CA, USA): CD38 (Hs01120071_m1), MICA (Hs00741286_m1), MICB (Hs00792952_m1) and GAPDH (Hs99999905_m1). The results were expressed as fold change relative to expression of the target gene in control cells, using endogenous expression of GAPDH for normalization."}, "[2]": {"tested_on": "CD38 histone H3 acetylation", "experiment": "ChIP-qPCR of CD38 histone H3 acetylation", "settings": "MM.1S (similar in RPMI-8226); 2.5 μM, 48 hours; vs DMSO", "experimental": "Chromatin Immunoprecipitation RPMI-8226 and MM.1S cell lines were treated with DMSO or tinostamustine (2.5 μM) for 48 hours. Then, the cells were fixed with Pierce™ fresh methanol-free formaldehyde (ThermoFisher) for 15 minutes and prepared for sonication with the truChIP Chromatin Shearing Kit (Covaris, Woburn, MA, USA), following the manufacturer's instructions and as previously described (Garcia-Gomez et al., Nat Commun 12: 421, 2021).\nFor ChIP-qPCR, samples were diluted 1/10, and 4 μL and specific primers (Supplementary Table 1) were used for each reaction. RT-qPCR was performed in technical triplicates for each biological replicate, using LightCycler® 480 SYBR Green Mix (Roche). The relative amount of immunoprecipitated DNA was compared to the input DNA for each condition."}, "[3]": {"tested_on": "CD38 expressed on MM cells", "experiment": "Daratumumab binding to myeloma cells pre-treated with EDO-S101, flow cytometry", "settings": "JJN3, RPMI-8226, MOLP-8; EDO-S101 1 or 2.5 μM 48 h, then daratumumab 10 μg/ml", "experimental": "Evaluation of daratumumab binding to myeloma cells To evaluate daratumumab binding to myeloma cells, MM cell lines were first pre-treated with tinostamustine (1 or 2.5 μM) or DMSO for 48 hours. Then cells were washed to remove tinostamustine or DMSO from the culture medium, and daratumumab (10 μg/ml) was added and incubated for 30 minutes. After that time, cells were washed with PBS twice and incubated during 30 additional minutes with anti-human-IgG1-AlexaFluor488 (Invitrogen, Carlsbad, CA, USA). Cells were acquired in a FACSCalibur cytometer and normalized MFI was calculated as described above.\nFlow cytometry was used to analyse the binding of daratumumab to MM cells pre-treated with EDO-S101. The anti-human-IgG1-Alexa Fluor 488 (Invitrogen, Carlsbad, CA, USA) antibody recognizes and binds daratumumab's Fc region and, therefore, it can be detected using flow cytometry.\nMM cells (JJN3, MM1.S, RPMI-8226, MOLP-8) were treated with EDO-S101 (1 μM or 2.5 μM) in accordance with the general methods outlined above. Following treatment, the cells were washed with PBS, and incubated at 37° C. for 30 minutes with 10 μg/ml daratumumab. Cells were then washed with PBS, anti-human-IgG1-Alexa Fluor 488 was added, and the cells were incubated at 37° C. for a further 30 minutes. […]"}, "MICA": {"tested_on": "MICA", "experiment": "MICA expression on MM patients' plasma cells ex vivo", "settings": "6 out of the 9 patients analyzed, 48 hours", "experimental": "as §1"}}}
{"compound": "Cn1c(CCCCCCC(=O)NO)nc2cc(N(CCCl)CCCl)ccc21", "note": "[EDO-S101, 7-(5-(bis(2-chloroethyl)amino)-1-methyl-1H-benzo[d]imidazol-2-yl)-N-hydroxyheptanamide]", "values": [{"measurement": "increase of MICB expression after treatment, patient cells", "setting": "MICB", "result": "more than 1.5 fold"}, {"measurement": "percentage of dead myeloma cells, NK-cell direct cytotoxicity (no daratumumab)", "setting": "[1]", "result": "significantly enhances"}, {"measurement": "percentage of dead myeloma cells, NK-cell direct cytotoxicity (no daratumumab)", "setting": "[1]; listed as tinostamustine", "result": "significantly increased"}, {"measurement": "expression of MICB at the mRNA level", "setting": "MICB mRNA", "result": "increased"}, {"measurement": "CD38 histone H3 acetylation levels", "setting": "[2]", "result": "elevated"}, {"measurement": "binding of daratumumab to MM cells (normalized MFI)", "setting": "[3]", "result": "increases"}, {"measurement": "expression of MICA in tinostamustine-treated vs DMSO-treated patient cells", "setting": "MICA", "result": "at least twice"}]}
